According to ChEMBL document CHEMBL1143532 (Bioorg Med Chem Lett, 2005):

How the values were obtained:
[1] = biological target: Neuronal acetylcholine receptor; alpha4/beta2 (Homo sapiens, UniProt P17787+P43681); assay: Binding affinity towards Nicotinic acetylcholine receptor alpha4-beta2; Not significant; format: protein complex
[2] = biological target: T1, Neuronal acetylcholine receptor subunit alpha-7 (Rattus norvegicus, UniProt Q05941); assay: Inhibitory constant against [3H]methyllycaconitine binding towards Nicotinic acetylcholine receptor alpha-7 of rat brain hippocampus; format: tissue-based
T1 sequence (Q05941 whole entry): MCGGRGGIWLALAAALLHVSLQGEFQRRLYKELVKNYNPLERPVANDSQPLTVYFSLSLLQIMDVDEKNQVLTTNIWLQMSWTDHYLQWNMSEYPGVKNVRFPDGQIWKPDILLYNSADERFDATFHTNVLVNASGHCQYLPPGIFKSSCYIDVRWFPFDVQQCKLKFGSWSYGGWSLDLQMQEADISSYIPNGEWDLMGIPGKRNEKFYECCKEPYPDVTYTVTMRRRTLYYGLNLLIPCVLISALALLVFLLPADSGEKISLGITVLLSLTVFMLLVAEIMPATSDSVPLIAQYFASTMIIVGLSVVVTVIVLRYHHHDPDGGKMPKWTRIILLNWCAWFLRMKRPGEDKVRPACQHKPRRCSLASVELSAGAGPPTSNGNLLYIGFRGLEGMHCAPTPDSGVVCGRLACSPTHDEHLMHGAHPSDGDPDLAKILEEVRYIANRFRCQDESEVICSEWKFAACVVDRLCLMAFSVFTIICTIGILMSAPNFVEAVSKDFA

[3] = biological target: Neuronal acetylcholine receptor subunit alpha-7 (Rattus norvegicus) (UniProt Q05941); assay: Intrinsic activity against rat nicotinic acetylcholine alpha-7 subunit expressed in Xenopus oocytes as current activation; format: functional, cell-based; conditions: Oocyte
Chain of Neuronal acetylcholine receptor subunit alpha-7 (Rattus norvegicus) (Q05941 whole entry): as above

[4] = biological target: T1, Neuronal acetylcholine receptor subunit alpha-7; assay: Potency against rat nicotinic acetylcholine alpha-7 subunit expressed in Xenopus oocytes as current activation; format: functional, cell-based, Oocyte

Chain of Neuronal acetylcholine receptor; alpha4/beta2 (P17787 whole entry): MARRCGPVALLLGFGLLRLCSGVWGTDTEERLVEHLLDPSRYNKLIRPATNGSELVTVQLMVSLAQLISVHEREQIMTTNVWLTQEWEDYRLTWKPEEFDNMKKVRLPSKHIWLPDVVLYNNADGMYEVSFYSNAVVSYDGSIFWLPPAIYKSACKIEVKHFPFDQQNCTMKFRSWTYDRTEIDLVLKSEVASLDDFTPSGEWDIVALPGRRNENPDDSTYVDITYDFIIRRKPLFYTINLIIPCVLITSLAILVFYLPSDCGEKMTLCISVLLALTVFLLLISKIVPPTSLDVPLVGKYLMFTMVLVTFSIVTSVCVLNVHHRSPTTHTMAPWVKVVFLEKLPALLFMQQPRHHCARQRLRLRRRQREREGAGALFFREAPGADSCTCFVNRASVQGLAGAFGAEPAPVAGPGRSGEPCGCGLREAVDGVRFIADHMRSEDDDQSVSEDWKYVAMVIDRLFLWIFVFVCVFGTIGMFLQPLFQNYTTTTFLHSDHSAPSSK
Chain of Neuronal acetylcholine receptor; alpha4/beta2 (P43681 whole entry): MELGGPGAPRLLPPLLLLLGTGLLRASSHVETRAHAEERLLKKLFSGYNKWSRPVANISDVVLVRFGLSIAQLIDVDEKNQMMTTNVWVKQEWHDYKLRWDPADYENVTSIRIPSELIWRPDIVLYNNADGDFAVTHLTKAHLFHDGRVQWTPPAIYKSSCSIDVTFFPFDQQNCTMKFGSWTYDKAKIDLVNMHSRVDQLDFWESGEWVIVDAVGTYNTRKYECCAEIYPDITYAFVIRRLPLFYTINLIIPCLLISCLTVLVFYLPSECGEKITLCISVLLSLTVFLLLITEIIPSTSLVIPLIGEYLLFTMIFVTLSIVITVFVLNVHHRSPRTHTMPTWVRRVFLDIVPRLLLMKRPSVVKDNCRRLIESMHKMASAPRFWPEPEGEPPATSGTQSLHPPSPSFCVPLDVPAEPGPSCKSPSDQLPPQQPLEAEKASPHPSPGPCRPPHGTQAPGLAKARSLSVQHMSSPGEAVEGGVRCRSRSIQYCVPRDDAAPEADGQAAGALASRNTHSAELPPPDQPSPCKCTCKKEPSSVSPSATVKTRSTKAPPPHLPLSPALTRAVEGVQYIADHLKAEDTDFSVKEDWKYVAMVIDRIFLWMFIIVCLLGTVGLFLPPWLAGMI

| Compound | Ki [1] | Ki [2] | Imax [3] | EC50 [4] |
| --- | --- | --- | --- | --- |
| O=C(Nc1cccc(C(F)(F)F)c1)N[C@@H]1C2CCN(CC2)[C@@H]1Cc1cccnc1 | > 10000 nM | 91 nM | – | – |
| O=C(N[C@@H]1C2CCN(CC2)[C@@H]1Cc1cccnc1)c1ccsc1 | > 10000 nM | 790 nM | – | – |
| O=C(Nc1ccc(Br)cc1)O[C@@H]1C2CCN(CC2)[C@@H]1Cc1ccco1 | > 10000 nM | 234 nM | – | – |
| O=C(Nc1ccc(-c2ccccc2)cc1)N[C@@H]1C2CCN(CC2)[C@@H]1Cc1cccnc1 | > 10000 nM | 424 nM | – | – |
| O=C(Nc1ccc(Br)cc1)O[C@@H]1C2CCN(CC2)[C@@H]1Cn1ccnc1 | > 10000 nM | 10 nM | – | – |
| O=C(Nc1ccc(F)cc1)N[C@@H]1C2CCN(CC2)[C@@H]1Cc1cccnc1 | > 10000 nM | 74 nM | – | – |
| CN(C)c1ccc(C[C@@H]2[C@H](OC(=O)Nc3ccc(Br)cc3)C3CCN2CC3)cc1 | > 10000 nM | – | – | – |
| O=C(N[C@@H]1C2CCN(CC2)[C@@H]1Cc1cccnc1)c1ccc2ccccc2c1O | > 10000 nM | 1 nM | – | – |
| COc1ccc(C[C@@H]2[C@H](OC(=O)Nc3ccc(Br)cc3)C3CCN2CC3)cc1 | > 10000 nM | > 10000 nM | – | – |
| O=C(N[C@@H]1C2CCN(CC2)[C@@H]1Cc1cccnc1)c1c[nH]c2ccccc12 | > 10000 nM | 8 nM | – | – |
| O=C(Nc1ccc(Oc2ccccc2)cc1)N[C@@H]1C2CCN(CC2)[C@@H]1Cc1cccnc1 | > 10000 nM | 16 nM | – | – |
| O=C(Nc1ccc(Br)cc1)O[C@@H]1C2CCN(CC2)[C@@H]1Cc1ccc(F)cc1 | > 10000 nM | 263 nM | – | – |
| O=S(=O)(N[C@@H]1C2CCN(CC2)[C@@H]1Cc1cccnc1)c1ccccc1 | > 10000 nM | 418 nM | – | – |
| O=C(Nc1ccc(-c2ccccc2)cc1)O[C@@H]1C2CCN(CC2)[C@@H]1Cc1cccnc1 | > 10000 nM | 500 nM | – | – |
| O=S(=O)(Cc1ccccc1)N[C@@H]1C2CCN(CC2)[C@@H]1Cc1cccnc1 | > 10000 nM | 8840 nM | – | – |
| O=C(Nc1ccc(Br)cc1)O[C@@H]1C2CCN(CC2)[C@@H]1Cc1cc2ccccc2o1 | > 10000 nM | 8390 nM | – | – |
| Cn1cccc1C(=O)N[C@@H]1C2CCN(CC2)[C@@H]1Cc1cccnc1 | > 10000 nM | 155 nM | – | – |
| C/C(=C\c1ccccc1)C(=O)N[C@@H]1C2CCN(CC2)[C@@H]1Cc1cccnc1 | > 10000 nM | 5 nM | – | – |
| COc1cncc(C[C@@H]2[C@H](OC(=O)Nc3ccc(Br)cc3)C3CCN2CC3)c1 | > 10000 nM | 144 nM | – | – |
| O=S(=O)(N[C@@H]1C2CCN(CC2)[C@@H]1Cc1cccnc1)c1ccc(Br)cc1 | > 10000 nM | – | – | – |
| O=C(Nc1ccc(Br)cc1)O[C@@H]1C2CCN(CC2)[C@@H]1Cc1ccccc1 | > 10000 nM | 838 nM | – | – |

| Compound | Ki [1] | Ki [2] | Imax [3] | EC50 [4] |
| --- | --- | --- | --- | --- |
| COc1ccc(S(=O)(=O)N[C@@H]2C3CCN(CC3)[C@@H]2Cc2cccnc2)cc1 | > 10000 nM | 8920 nM | – | – |
| CSc1ccc(NC(=O)N[C@@H]2C3CCN(CC3)[C@@H]2Cc2cccnc2)cc1 | > 10000 nM | 6 nM | – | – |
| O=C(Nc1cccc(F)c1)N[C@@H]1C2CCN(CC2)[C@@H]1Cc1cccnc1 | > 10000 nM | 6 nM | – | – |
| O=C(N[C@@H]1C2CCN(CC2)[C@@H]1Cc1cccnc1)c1csc(Br)c1 | > 10000 nM | 0.4 nM | – | – |
| O=C(Nc1ccccc1)OC1CN2CCC1CC2 (configuration not stated) | > 10000 nM | – | – | – |
| O=C(Nc1ccccc1)O[C@@H]1C2CCN(CC2)[C@@H]1Cc1cccnc1 | > 10000 nM | – | – | – |
| CC(C)Oc1cncc(C[C@@H]2[C@H](OC(=O)Nc3ccc(Br)cc3)C3CCN2CC3)c1 | > 10000 nM | 7020 nM | – | – |
| O=C(Nc1ccc(Br)cc1)O[C@@H]1C2CCN(CC2)[C@@H]1Cc1cnccc1Oc1ccccc1 | > 10000 nM | > 10000 nM | – | – |
| O=C(NC1CC1c1ccccc1)O[C@@H]1C2CCN(CC2)[C@@H]1Cc1cccnc1 (some centres not stated) | > 10000 nM | 103 nM | – | – |
| O=C(Nc1ccc(Sc2ccccc2)cc1)OC1CN2CCC1CC2 (configuration not stated) | > 10000 nM | 53 nM | – | – |
| CN(C)c1ccc(NC(=O)N[C@@H]2C3CCN(CC3)[C@@H]2Cc2cccnc2)cc1 | > 10000 nM | 38 nM | – | – |
| O=C(Nc1ccc(Br)cc1)O[C@@H]1C2CCN(CC2)[C@@H]1Cc1ccccn1 | > 10000 nM | > 10000 nM | – | – |
| O=C(N[C@@H]1C2CCN(CC2)[C@@H]1Cc1cccnc1)c1ccc(Sc2ccccc2)cc1 | > 10000 nM | – | – | – |
| N#Cc1cccc(NC(=O)N[C@@H]2C3CCN(CC3)[C@@H]2Cc2cccnc2)c1 | > 10000 nM | 170 nM | – | – |
| O=C(Nc1ccccc1)N[C@@H]1C2CCN(CC2)[C@@H]1Cc1cccnc1 | > 10000 nM | 16 nM | – | – |
| COc1cccc(NC(=O)N[C@@H]2C3CCN(CC3)[C@@H]2Cc2cccnc2)c1 | > 10000 nM | 43 nM | – | – |
| O=C(Nc1ccc(Br)cc1)O[C@@H]1C2CCN(CC2)[C@@H]1Cc1cccnc1 | > 10000 nM | – | – | – |
| O=C(NCc1ccccc1)O[C@@H]1C2CCN(CC2)[C@@H]1Cc1cccnc1 | > 10000 nM | 670 nM | – | – |
| O=C(Nc1cccc(Br)c1)N[C@@H]1C2CCN(CC2)[C@@H]1Cc1cccnc1 | > 10000 nM | 52 nM | – | – |
| Cn1cc(C(=O)N[C@@H]2C3CCN(CC3)[C@@H]2Cc2cccnc2)c2ccccc21 | > 10000 nM | 521 nM | – | – |
| O=C(Nc1ccc(F)cc1)O[C@@H]1C2CCN(CC2)[C@@H]1Cc1cccnc1 | > 10000 nM | 6 nM | – | – |

| Compound | Ki [1] | Ki [2] | Imax [3] | EC50 [4] |
| --- | --- | --- | --- | --- |
| O=C(Nc1ccc(Br)cc1)N[C@@H]1C2CCN(CC2)[C@@H]1Cc1cccnc1 | > 10000 nM | 9 nM | – | – |
| O=C(Nc1ccc(Sc2ccccc2)cc1)O[C@@H]1C2CCN(CC2)[C@@H]1Cc1cccnc1 | > 10000 nM | 9 nM | – | – |
| O=C(Nc1ccc(Cl)c(Cl)c1)N[C@@H]1C2CCN(CC2)[C@@H]1Cc1cccnc1 | > 10000 nM | 34 nM | – | – |
| NC(=O)Cc1ccc(S(=O)(=O)N[C@@H]2C3CCN(CC3)[C@@H]2Cc2cccnc2)cc1 | > 10000 nM | 146 nM | – | – |
| C/C(=C\C(=O)N[C@@H]1C2CCN(CC2)[C@@H]1Cc1cccnc1)c1ccccc1 | > 10000 nM | 87 nM | – | – |
| O=C(N[C@@H]1C2CCN(CC2)[C@@H]1Cc1cccnc1)c1cc2ccccc2o1 | – | – | 1 | – |
| O=C(Nc1ccc(Oc2ccccc2)cc1)O[C@@H]1C2CCN(CC2)[C@@H]1Cc1cccnc1 | > 10000 nM | 50 nM | – | – |
| CS(=O)(=O)c1ccc(C[C@@H]2[C@H](OC(=O)Nc3ccc(Br)cc3)C3CCN2CC3)cc1 | > 10000 nM | 6780 nM | – | – |
| COc1ccncc1C[C@@H]1[C@H](OC(=O)Nc2ccc(Br)cc2)C2CCN1CC2 | > 10000 nM | 29 nM | – | – |
| COc1ccc(NC(=O)N[C@@H]2C3CCN(CC3)[C@@H]2Cc2cccnc2)cc1 | > 10000 nM | 37 nM | – | – |
| O=C(NCc1ccc(Br)cc1)N[C@@H]1C2CCN(CC2)[C@@H]1Cc1cccnc1 | > 10000 nM | 274 nM | – | – |
| COc1ccccc1NC(=O)N[C@@H]1C2CCN(CC2)[C@@H]1Cc1cccnc1 | > 10000 nM | 30 nM | – | – |
| O=C(Nc1ccc(Br)cc1)O[C@@H]1C2CCN(CC2)[C@@H]1Cc1cncnc1 | > 10000 nM | 40 nM | – | – |
| O=C(Nc1ccc(Br)cc1)O[C@@H]1C2CCN(CC2)[C@@H]1Cc1cnc2ccccc2c1 | > 10000 nM | 10000 nM | – | – |
| O=C(Nc1ccc(Br)cc1)OC1CN2CCC1CC2 (configuration not stated) | > 10000 nM | – | – | – |
| O=C(NC1CC1c1ccccc1)N[C@@H]1C2CCN(CC2)[C@@H]1Cc1cccnc1 (some centres not stated) | > 10000 nM | – | – | – |
| O=C(N[C@@H]1C2CCN(CC2)[C@@H]1Cc1cccnc1)c1cccc(Br)c1 | > 10000 nM | 64 nM | – | – |
| COc1ccc(NC(=O)N[C@@H]2C3CCN(CC3)[C@@H]2Cc2cccnc2)c(OC)c1 | > 10000 nM | 31 nM | – | – |
| COc1ccc(NC(=O)O[C@@H]2C3CCN(CC3)[C@@H]2Cc2cccnc2)cc1 | > 10000 nM | 5 nM | 0.19 | 300 nM |
| O=C(Nc1ccc(Br)cc1)O[C@@H]1C2CCN(CC2)[C@@H]1Cc1ccsc1 | > 10000 nM | 534 nM | – | – |
